Paper PMC10137182, “Novel CDK12/13 Inhibitors AU-15506 and AU-16770 Are Potent Anti-Cancer Agents in EGFR Mutant Lung Adenocarcinoma with and without Osimertinib Resistance” (Cancers, 2023)
Read-outs that look alike come from different tables or passages of the source.

Assays:
FGFR1 = FGFR1 (Homo sapiens, UniProt P11362); design: method as in PMID 19282669; settings: at 1 μM; cited from earlier work
H1975-osiR-NCI1 cells = assay: Cell-growth-inhibition end-point assay (CellTiter-Glo, 72 h); assay type: cell-based; settings: Homo sapiens
Procedure: (§1) After 3–4 days of growth, surviving cells were trypsinized and plated again at the same initial density and the next day, the medium was replaced with a fresh growth medium, supplemented with 2× (relative to the previous concentration) of osimertinib. This process continued until osimertinib concentration reached […]. The newly generated osimertinib-resistant cells (H1975-osiR-NCI1, PC9-osiR-NCI1, HCC827-osiR-NCI1, and HCC827-osiR-NCI2) were then maintained at […] osimertinib.
(§2) Approximately 1500 cells/[…] were plated in 96-well plates with 4 wells for each treatment condition. Plates were incubated at 37 °C. For the cell growth assay, one set of cells was treated each day for 5 days with cell titer glow reagent (Promega), and luciferase luminescence (indicator of cell viability) was measured according to the manufacturer’s protocol. For the growth inhibition end-point assay, cells in 96-well plates were treated with target drugs as follows.

HCC827-osiR-NCI1 cells = assay: as above; assay type: cell-based; settings: Homo sapiens
Procedure: as §1, §2

PC9-osiR-NCI1 cells [1] = assay: as above; assay type: cell-based; settings: Homo sapiens, read-out: IC50 (osimertinib), PC9-osiR-NCI1
Procedure: as §1, §2

H1975 cells = assay: as above; assay type: cell-based; settings: Homo sapiens, NCI-H1975, osimertinib alone; Figure 1B
Procedure: as §2

HCC827 cells = assay: as above; assay type: cell-based; settings: Homo sapiens, HCC827, read-out: IC50 (osimertinib), HCC827
Procedure: as §2

PC9 cells [2] = assay: as above; assay type: cell-based; settings: Homo sapiens, PC-9, read-out: IC50 (osimertinib), PC9
Procedure: as §2

[3] = tested on: H1975, PC9, and HCC827 parental and osimertinib-resistant cells; assay: Cell-growth-inhibition assays, summary over the cell panel; assay type: cell-based; settings: Homo sapiens
Procedure: as §2

[4] = tested on: PC9-osiR-NCI1-derived tumors; assay: Subcutaneous xenograft mouse model; assay type: in vivo, athymic female nude mice
Procedure: All mice xenograft studies were conducted on 5–6-week-old female athymic nude mice […] with approval from the NCI Animal Care and Use Committee (ACUC). Mice were obtained from NCI-Frederick and maintained in a pathogen-free facility at the NCI. H1975-osiR-NCI1 or PC9-osiR-NCI1 cells were cultured in RPMI (Millipore-Sigma) supplemented with 10% fetal bovine serum (Gemini) and 1% penicillin/streptomycin. All cell lines were then cultured in a humidified incubator with 5% CO2 at 37 °C. Cells were detached using 0.25% trypsin (ThermoFisher) and resuspended in PBS prior to implantation. Approximately 2 × 10^6 cells/0.1 mL/mouse were implanted subcutaneously. […] Tumor growth was monitored twice weekly by bilateral caliper measurement and tumor volume was calculated using the length × diameter^2 formula. Mice with tumor volume <200 mm^3 were randomized into vehicle or treatment groups to ensure equal distribution across groups. However, for tumor tissue collection and lysate preparation, mice with xenografts were maintained with osimertinib until tumor size reached approximately 900 mm^3 prior to drug treatment for 5 days. Vehicle (0.5% methyl cellulose), osimertinib (5 mg/kg/day), AU-15506 (5 mg/kg/day), or AU-16770 (5 mg/kg/day) were administered by oral gavage. AU-15506 or AU-16770 were prepared in a solution containing 10% PEG400, 10% D-ɑ-tocopheryl polyethylene glycol succinate (TPGS), and 0.4% Tween 80. Tumor size was measured twice weekly. Tumor volume for each mouse was converted to percent change based on a baseline volume of 100% on treatment day 0. Tumor growth inhibition was assessed by comparison of either the average tumor volume or mean changes in tumor volume for the control and treatment groups. Statistical significance was evaluated using a two-tailed Student’s t test.

PC9 cells [5] = assay: Cell-cycle analysis by flow cytometry (propidium iodide); assay type: cell-based, human; settings: 50 nM osimertinib or 100 nM AU-16770, 18 h
Procedure: (§3) PC9 and PC9-osiR-NCI1 cells were initially grown in an RPMI-1640 medium supplemented with 10% FBS, 1% penicillin/streptomycin, and 2 […]. Following 3–4 days of growth, cells were trypsinized, replated in 10 cm Petri dishes and grown in drug-free RPMI-1640, 10% FBS, and 1% penicillin/streptomycin. Both groups of cells were treated with DMSO (vehicle), osimertinib (50 nM), or AU-16770 (100 nM) for 18 h. Cells were trypsinized, washed with PBS, fixed in 70% ethanol, washed twice in PBS, and approximately 5 × 10^5 cells/mL were incubated in […] propidium iodide/PBS and 100 units/mL RNase to label the DNA for 1 h before it was analyzed by FACS.

PC9-osiR-NCI1 cells [6] = assay: as above; assay type: cell-based, human; settings: 50 nM osimertinib or 100 nM AU-16770, 18 h
Procedure: as §3

Sequence of FGFR1 (P11362 22-822, species assumed): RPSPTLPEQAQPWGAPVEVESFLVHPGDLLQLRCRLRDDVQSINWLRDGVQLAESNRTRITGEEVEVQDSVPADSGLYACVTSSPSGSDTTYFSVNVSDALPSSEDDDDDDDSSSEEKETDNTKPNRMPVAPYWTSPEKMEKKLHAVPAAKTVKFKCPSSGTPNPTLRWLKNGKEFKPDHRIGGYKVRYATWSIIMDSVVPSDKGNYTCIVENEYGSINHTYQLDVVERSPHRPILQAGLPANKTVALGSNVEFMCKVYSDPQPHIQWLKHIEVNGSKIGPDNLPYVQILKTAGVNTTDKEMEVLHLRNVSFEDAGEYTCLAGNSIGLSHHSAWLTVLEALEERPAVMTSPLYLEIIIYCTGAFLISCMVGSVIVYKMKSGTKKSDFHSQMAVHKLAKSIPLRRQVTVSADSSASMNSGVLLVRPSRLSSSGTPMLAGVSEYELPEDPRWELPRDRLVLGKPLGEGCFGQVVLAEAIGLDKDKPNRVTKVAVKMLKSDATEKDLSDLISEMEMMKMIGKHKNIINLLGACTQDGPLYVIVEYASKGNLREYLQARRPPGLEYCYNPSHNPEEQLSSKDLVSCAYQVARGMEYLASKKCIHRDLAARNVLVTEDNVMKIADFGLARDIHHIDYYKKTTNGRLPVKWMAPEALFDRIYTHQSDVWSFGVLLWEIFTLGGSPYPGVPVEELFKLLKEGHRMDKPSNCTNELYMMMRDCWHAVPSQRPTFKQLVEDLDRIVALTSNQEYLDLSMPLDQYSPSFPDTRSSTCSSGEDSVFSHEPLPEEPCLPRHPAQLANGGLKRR

| Compound | inhibition of FGFR1 (FGFR1) [%] | IC50 (H1975-osiR-NCI1 cells; NCI-H1975/OSIR, osimertinib alone, read-out: IC50, H1975-osiR cells) [nM] | IC50 (H1975-osiR-NCI1 cells; read-out: IC50 (osimertinib), H1975-osiR-NCI1) [nM] | IC50 (HCC827-osiR-NCI1 cells; read-out: IC50 (osimertinib), HCC827-osiR-NCI1) [nM] | IC50 (HCC827-osiR-NCI1 cells; read-out: IC50, HCC827-osiR cells) [nM] | IC50 (PC9-osiR-NCI1 cells [1]) [nM] | IC50 (H1975 cells) [nM] | IC50 (HCC827 cells) [nM] | IC50 (PC9 cells [2]) [nM] | IC50 ([3]; read-out: IC50s, osimertinib-resistant cells (range over cell lines)) [nM] | IC50 ([3]; read-out: IC50s, osimertinib-sensitive cells (range over cell lines)) [nM] | effect on xenograft tumor growth ([4]; 5 mg/kg/day oral gavage, AU-15506 arms 14 days, AU-16770 arms 28 days) | median survival (Kaplan–Meier) ([4]; 5 mg/kg/day, combination = AU-16770-osimertinib (days 0–32), AU-15506-osimertinib (days 33–46)) [days] | Tumor growth inhibition (TGI) ([4]; Day 28, 5 mg/kg/day oral gavage) [%] | Cell Cycle Phase % G1, PC9 (PC9 cells [5]) [%] | Cell Cycle Phase % G2, PC9 (PC9 cells [5]) [%] | Cell Cycle Phase % S, PC9 (PC9 cells [5]) [%] | Cell Cycle Phase % G1, PC9-osiR (PC9-osiR-NCI1 cells [6]) [%] | Cell Cycle Phase % G2, PC9-osiR (PC9-osiR-NCI1 cells [6]) [%] | Cell Cycle Phase % S, PC9-osiR (PC9-osiR-NCI1 cells [6]) [%] |
| --- | --- | --- | --- | --- | --- | --- | --- | --- | --- | --- | --- | --- | --- | --- | --- | --- | --- | --- | --- | --- |
| CN(C)C/C=C/C(=O)Nc1ccc(C(=O)N2CCC[C@@H](Nc3ncc(Cl)c(-c4c[nH]c5ccccc45)n3)C2)cc1 [THZ531] | 82 |  |  |  |  |  |  |  |  |  |  |  |  |  |  |  |  |  |  |  |
| C=CC(=O)Nc1cc(Nc2nccc(-c3cn(C)c4ccccc34)n2)c(OC)cc1N(C)CCN(C)C [osimertinib] |  | 1860 | 1860 | 5490 | 5490 | 2210 | 46.8 | 7.5 | 37.5 | 1860 to 5490 | 7.57 to 46.8 | induced some tumor regression | 40 | 50 | 67.40 | 24.8 | 13.10 | 54.10 | 1.41 | 38.40 |
